Source: patent US20100004234A1, “SPECIFIC KINASE INHIBITORS” (Kosan Biosciences Incorporated, priority 2004, published 2010)

Legend:
Format in all cases: biochemical
GSK3β = GSK3β (Homo sapiens, UniProt P49841); test: Time-dependent kinase inhibition kinetics (progress curve)
Description: (§1) Typically, one measures the increase in inhibition of protein kinase activity in the presence of inhibitor over time. In one method, aliquots of a “pre-incubation” reaction mixture containing enzyme and inhibitor are assayed for activity (initial velocities) over time; increased inhibition or decreased initial velocities will be observed over time as the Michael adduct forms (Walsh, C, Enzyme Reaction Mechanisms, W.H. Freeman & Co., 1979, pp 86-94). In a second method, the time dependent loss of activity is measured as “progress curves” that measure and analyze product formed (e.g. ADP) versus time (Morrison & Walsh, Adv. Enzymol Relat Areas Mol. Biol. 1988, 61, 201-301). In either case, the time dependent inactivation can be dampened by the presence of a competing substrate, in this case ATP.
(§2) For covalent inhibitors, plots of log (activity) versus time provide apparent first-order rate constants (kobsd) of enzyme activity loss. If these assays are performed at varying concentrations of inhibitor, a series of first-order plots is obtained and kobsd obtained at each inhibitor concentration. To measure time-dependent inhibition using the “progress-curve method” (see references cited above and Kuzmic et al., Methods Enzymol 2004; 383: 366-81), ERK (or other kinase) is treated with varying amounts of the lactone inhibitor, and the formation of ADP is measured continuously by a coupled assay. […] Such molecules may be competitive inhibitors but should not show time-dependent inactivation.
(§3) Those of skill in the art will recognize that within the set of compounds useful in the methods of the invention, significant variability in specificity can be achieved, allowing one to identify optimal compounds for different applications. Inhibition progress curve analysis was performed using continuous, colorimetric, or fluorimetric assays. All experiments were done at 1 mM ATP, with the exception of KDR (at 5 mM ATP).
(§4) MEK1 assays were performed using pre-incubation experiments with radioactive [^32P]ATP and filter binding of product. All other kinases were analyzed using progress curve analysis from a continuous spectrophotometric assay.

Flt-3 = target: T1, Flt-3 (Homo sapiens, UniProt P36888); test: as above
T1 sequence (P36888 27-993): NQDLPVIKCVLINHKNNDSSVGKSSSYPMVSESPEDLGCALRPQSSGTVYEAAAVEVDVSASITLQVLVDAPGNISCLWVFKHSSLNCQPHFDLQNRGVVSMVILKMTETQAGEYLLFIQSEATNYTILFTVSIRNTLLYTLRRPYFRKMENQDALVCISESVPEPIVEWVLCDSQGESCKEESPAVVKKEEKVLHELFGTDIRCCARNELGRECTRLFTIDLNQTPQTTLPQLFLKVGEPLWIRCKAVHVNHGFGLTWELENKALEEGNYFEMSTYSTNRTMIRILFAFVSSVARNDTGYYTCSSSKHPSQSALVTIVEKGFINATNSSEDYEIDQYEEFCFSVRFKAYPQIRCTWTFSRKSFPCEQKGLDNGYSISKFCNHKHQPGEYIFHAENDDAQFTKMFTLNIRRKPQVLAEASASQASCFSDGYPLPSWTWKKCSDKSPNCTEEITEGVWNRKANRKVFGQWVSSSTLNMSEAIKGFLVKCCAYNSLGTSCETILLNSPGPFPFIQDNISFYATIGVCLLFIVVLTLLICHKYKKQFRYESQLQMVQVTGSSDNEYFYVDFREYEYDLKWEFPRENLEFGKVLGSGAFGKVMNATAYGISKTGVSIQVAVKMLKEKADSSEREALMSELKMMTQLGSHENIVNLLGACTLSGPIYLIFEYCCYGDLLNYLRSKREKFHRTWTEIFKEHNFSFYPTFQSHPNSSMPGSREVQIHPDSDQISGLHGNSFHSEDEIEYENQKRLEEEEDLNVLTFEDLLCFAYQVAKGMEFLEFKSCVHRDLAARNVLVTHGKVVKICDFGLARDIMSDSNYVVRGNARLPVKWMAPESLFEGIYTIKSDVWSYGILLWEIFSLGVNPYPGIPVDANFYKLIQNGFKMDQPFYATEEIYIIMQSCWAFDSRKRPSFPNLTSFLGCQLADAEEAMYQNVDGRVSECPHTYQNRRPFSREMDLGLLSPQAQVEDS
Description: as §1, §2, §3, §4

KDR (VEGFR2) = KDR (VEGFR2) (Homo sapiens, UniProt P35968); test: as above
Sequence of KDR (VEGFR2) (P35968 20-1356): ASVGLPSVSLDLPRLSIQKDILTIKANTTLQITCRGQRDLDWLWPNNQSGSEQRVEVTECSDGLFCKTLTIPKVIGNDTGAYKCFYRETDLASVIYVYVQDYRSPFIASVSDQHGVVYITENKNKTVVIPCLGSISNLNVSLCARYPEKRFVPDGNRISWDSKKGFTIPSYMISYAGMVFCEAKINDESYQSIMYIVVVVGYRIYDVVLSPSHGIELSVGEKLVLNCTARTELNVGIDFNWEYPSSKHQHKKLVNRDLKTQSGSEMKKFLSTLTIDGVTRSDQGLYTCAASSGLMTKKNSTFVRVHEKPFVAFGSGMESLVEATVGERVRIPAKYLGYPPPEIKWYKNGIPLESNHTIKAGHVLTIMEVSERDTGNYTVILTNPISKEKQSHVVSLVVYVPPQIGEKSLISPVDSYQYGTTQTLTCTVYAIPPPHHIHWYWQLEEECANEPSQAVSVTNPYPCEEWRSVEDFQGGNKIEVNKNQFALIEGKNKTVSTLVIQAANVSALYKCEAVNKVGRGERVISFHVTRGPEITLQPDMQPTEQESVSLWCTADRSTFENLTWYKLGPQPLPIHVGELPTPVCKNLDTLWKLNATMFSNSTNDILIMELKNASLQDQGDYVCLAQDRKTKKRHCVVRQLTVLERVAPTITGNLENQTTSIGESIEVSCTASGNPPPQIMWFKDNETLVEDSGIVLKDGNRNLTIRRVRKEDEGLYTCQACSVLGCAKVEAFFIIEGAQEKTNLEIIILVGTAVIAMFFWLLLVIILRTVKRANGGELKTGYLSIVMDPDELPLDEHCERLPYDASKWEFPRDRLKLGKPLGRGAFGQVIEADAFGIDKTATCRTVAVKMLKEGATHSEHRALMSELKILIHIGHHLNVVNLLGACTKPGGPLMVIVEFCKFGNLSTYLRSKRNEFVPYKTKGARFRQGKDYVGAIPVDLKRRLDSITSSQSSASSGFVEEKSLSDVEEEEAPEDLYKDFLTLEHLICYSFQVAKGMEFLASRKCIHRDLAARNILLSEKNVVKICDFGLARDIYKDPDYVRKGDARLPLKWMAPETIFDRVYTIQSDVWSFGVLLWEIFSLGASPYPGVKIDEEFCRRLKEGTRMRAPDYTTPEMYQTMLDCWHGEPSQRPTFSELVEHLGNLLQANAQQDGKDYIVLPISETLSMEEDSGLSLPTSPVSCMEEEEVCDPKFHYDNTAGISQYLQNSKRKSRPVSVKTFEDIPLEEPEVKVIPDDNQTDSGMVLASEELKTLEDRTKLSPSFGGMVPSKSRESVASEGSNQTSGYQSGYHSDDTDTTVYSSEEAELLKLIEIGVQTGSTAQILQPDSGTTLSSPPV
Description: as §1, §2, §3, §4

TrkB = TrkB (Homo sapiens, UniProt Q16620); test: as above
Sequence of TrkB (Q16620 32-822): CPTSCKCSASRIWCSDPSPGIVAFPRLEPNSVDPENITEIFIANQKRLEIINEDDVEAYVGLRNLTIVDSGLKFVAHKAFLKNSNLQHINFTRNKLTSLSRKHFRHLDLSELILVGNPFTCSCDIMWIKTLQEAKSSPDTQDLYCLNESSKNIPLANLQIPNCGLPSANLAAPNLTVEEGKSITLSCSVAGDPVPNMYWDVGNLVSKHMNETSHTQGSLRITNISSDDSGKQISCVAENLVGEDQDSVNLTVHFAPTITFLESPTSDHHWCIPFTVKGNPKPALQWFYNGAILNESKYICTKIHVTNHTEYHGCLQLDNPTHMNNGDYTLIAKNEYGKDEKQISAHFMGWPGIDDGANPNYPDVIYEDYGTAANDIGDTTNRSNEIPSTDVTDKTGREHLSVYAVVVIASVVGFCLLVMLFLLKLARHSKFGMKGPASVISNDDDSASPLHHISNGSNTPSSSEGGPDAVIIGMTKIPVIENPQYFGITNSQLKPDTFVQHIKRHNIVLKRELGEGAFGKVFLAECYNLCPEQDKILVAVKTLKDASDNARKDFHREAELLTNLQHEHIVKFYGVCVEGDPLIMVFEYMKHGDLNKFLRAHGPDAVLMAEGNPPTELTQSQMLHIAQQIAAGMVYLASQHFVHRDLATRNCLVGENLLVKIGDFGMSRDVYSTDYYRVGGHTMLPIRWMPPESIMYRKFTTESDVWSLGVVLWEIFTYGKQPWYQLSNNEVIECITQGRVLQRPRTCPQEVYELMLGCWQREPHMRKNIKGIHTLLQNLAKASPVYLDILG
Description: as §1, §2, §3, §4

PDGFRβ = PDGFRβ (Homo sapiens, UniProt P09619); test: as above
Description: as §1, §2, §3, §4

PDGFRα = PDGFRα (Homo sapiens, UniProt P16234); test: as above
Sequence of PDGFRα (P16234 24-1089): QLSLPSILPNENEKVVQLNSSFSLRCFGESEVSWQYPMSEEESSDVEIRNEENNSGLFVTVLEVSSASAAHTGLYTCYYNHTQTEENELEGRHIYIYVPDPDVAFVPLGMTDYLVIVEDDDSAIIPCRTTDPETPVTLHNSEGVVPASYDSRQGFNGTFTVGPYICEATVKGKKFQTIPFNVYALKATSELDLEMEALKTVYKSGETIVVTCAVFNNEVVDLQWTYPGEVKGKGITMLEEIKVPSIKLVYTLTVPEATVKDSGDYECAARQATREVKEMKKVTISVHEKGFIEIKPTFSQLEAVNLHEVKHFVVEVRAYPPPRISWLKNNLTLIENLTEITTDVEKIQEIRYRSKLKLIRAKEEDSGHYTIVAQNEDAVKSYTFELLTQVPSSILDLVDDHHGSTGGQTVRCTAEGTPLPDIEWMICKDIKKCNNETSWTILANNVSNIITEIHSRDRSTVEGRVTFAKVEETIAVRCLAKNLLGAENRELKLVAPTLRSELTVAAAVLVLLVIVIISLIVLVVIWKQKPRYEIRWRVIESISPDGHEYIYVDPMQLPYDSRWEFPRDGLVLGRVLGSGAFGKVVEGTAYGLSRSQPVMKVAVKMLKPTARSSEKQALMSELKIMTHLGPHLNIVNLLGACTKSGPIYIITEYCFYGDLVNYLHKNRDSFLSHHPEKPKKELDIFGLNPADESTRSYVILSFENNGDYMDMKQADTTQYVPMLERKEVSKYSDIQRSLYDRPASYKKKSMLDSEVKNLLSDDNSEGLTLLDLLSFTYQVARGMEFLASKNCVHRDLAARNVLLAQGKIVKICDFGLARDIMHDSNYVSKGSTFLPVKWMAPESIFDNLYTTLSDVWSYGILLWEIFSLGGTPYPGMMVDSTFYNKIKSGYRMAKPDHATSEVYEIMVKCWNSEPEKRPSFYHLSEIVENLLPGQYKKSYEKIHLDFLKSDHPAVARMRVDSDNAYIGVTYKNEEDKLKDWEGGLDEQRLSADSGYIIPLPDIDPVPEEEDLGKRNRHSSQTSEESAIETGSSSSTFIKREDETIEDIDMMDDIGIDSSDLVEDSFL
Description: as §1, §2, §3, §4

GSK3α = GSK3α (Homo sapiens, UniProt P49840); test: as above
Sequence of GSK3α (P49840 whole entry): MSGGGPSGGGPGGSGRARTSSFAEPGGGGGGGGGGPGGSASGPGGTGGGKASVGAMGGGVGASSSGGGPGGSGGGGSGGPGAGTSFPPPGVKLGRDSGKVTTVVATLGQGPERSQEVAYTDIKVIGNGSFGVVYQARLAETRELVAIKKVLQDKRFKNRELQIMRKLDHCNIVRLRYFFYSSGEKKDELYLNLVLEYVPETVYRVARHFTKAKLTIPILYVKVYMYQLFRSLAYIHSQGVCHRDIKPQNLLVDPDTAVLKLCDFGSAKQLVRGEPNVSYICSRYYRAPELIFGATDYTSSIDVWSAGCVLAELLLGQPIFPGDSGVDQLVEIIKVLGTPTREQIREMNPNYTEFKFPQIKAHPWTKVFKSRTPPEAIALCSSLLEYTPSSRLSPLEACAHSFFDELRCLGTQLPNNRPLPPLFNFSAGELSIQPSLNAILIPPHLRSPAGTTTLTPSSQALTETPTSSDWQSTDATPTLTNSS
Description: as §1, §2, §3, §4

TrkA = TrkA (Homo sapiens, UniProt P04629); test: as above
Sequence of TrkA (P04629 33-796): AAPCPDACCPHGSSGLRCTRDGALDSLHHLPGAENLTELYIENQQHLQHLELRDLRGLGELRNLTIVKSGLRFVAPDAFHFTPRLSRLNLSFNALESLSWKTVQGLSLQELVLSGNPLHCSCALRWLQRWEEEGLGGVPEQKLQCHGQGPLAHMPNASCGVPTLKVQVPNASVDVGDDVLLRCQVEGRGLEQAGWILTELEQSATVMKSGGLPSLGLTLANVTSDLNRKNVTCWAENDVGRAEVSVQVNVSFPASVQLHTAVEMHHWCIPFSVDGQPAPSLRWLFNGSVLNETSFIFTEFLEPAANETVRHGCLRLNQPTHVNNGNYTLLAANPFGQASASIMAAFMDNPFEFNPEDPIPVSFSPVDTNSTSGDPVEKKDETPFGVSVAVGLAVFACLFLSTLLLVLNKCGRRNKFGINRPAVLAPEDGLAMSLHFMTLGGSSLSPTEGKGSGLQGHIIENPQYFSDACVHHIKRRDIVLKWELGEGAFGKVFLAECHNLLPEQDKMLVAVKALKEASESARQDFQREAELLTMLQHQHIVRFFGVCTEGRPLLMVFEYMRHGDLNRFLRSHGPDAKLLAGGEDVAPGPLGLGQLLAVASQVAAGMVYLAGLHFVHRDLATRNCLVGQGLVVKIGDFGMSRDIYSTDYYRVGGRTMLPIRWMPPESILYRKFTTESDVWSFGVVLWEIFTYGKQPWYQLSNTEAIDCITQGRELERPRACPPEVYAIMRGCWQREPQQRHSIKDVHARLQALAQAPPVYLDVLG
Description: as §1, §2, §3, §4

ERK2 = ERK2 (UniProt P28482); design: other: calculated for 0.1 μM for ~10 minutes; Ki; other: ERK2; kinact/Ki; "the target Cys 172 residue
Description: In either case, the time dependent inactivation can be dampened by the presence of a competing substrate, in this case ATP.
For covalent inhibitors, plots of log (activity) versus time provide apparent first-order rate constants (kobsd) of enzyme activity loss. If these assays are performed at varying concentrations of inhibitor, a series of first-order plots is obtained and kobsd obtained at each inhibitor concentration. […] Such molecules may be competitive inhibitors but should not show time-dependent inactivation.
Inhibition progress curve analysis was performed using continuous, colorimetric, or fluorimetric assays. All experiments were done at 1 mM ATP, with the exception of KDR (at 5 mM ATP).
as §4

[1] = calculated for 0.1 μM for ~10 minutes

Sequence of GSK3β (P49841 whole entry): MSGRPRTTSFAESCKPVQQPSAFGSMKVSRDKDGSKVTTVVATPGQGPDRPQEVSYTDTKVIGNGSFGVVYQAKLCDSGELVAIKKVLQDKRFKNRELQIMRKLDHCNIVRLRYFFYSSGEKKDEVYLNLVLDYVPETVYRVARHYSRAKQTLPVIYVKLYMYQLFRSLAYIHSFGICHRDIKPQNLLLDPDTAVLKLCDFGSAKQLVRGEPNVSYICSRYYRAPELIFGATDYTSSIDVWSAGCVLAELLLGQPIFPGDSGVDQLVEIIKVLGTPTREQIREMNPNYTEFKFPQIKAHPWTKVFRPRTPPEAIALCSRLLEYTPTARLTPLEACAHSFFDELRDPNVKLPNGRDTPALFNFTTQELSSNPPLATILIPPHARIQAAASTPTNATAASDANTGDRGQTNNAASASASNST

COc1cc(O)c2c(c1)[C@H]1O[C@@H]1C[C@H](O)[C@H](O)C(=O)/C=C\C[C@H](C)OC2=O [Hypothemycin, hypothemycin]
Ki (GSK3β): 370000 nM
kinact/KI (GSK3β; GSK3β): 5.4 M⁻¹ s⁻¹
kinact (GSK3β; GSK3β, 1 mM ATP): 0.002 s⁻¹
kinact/KI (Flt-3): 47000 M⁻¹ s⁻¹
Ki (Flt-3; 1 mM ATP): 150 nM
kinact (Flt-3; 1 mM ATP): 0.007 s⁻¹
Ki (KDR (VEGFR2); KDR): 10 nM
kinact/KI (KDR (VEGFR2); KDR): 500000 M⁻¹ s⁻¹
kinact/Ki (KDR (VEGFR2); KDR (VEGFR2)): 500000 M⁻¹ s⁻¹
Ki (KDR (VEGFR2); KDR (VEGFR2), 5 mM ATP): 14 nM
kinact (KDR (VEGFR2); KDR (VEGFR2), 5 mM ATP): 0.007 s⁻¹
KDR activity inhibited (KDR (VEGFR2); [1]): > 98%
Ki (TrkB; TRKB, reversible inhibition competitive with ATP): 370 nM
kinact/Ki (TrkB; TrkB): None
time-dependent inactivation (covalent bond formation) (TrkB; TrkB): did not show time-dependent inactivation
kinact (TrkB; TrkB, 1 mM ATP): None
kinact/KI (PDGFRβ): 2500 M⁻¹ s⁻¹
Ki (PDGFRβ; 1 mM ATP): 1200 nM
kinact (PDGFRβ; 1 mM ATP): 0.003 s⁻¹
kinact/KI (PDGFRα): 1300 M⁻¹ s⁻¹
Ki (PDGFRα; 1 mM ATP): 1500 nM
kinact (PDGFRα; 1 mM ATP): 0.002 s⁻¹
Ki (GSK3α): > 630000 nM
Ki (TrkA; TRKA, reversible inhibition competitive with ATP): 2200 nM
kinact/Ki (TrkA; TrkA): None
time-dependent inactivation (covalent bond formation) (TrkA; TrkA): did not show time-dependent inactivation
kinact (TrkA; TrkA, 1 mM ATP): None
Ki (ERK2; ERK2): 2000 nM
kinact/Ki (ERK2; ERK2): 1.9E+03
ERK activity inhibited (ERK2; [1]): < 5%
